In brackets after ≈: the same amount, converted by molar mass. Like-named read-outs stand apart in the source and are kept apart here.
Experiments:
[1] = tested on: N. gonorrhoeae ATCC 49226; assay: IHMA QC MIC; assay type: cell-based; settings: Neisseria gonorrhoeae, ATCC49226
Text: (§1) Supplement jm2c01905_si_004.xlsx, sheet "QC" | column: MIC [µg/mL]

S. pneumoniae ATCC 49619 = assay: IHMA QC MIC; assay type: cell-based
Text: as §1

H. influenzae ATCC 49247 = assay: IHMA QC MIC; assay type: cell-based; settings: Haemophilus influenzae
Text: as §1

H. influenzae ATCC 49766 = assay: IHMA QC MIC; assay type: cell-based
Text: as §1

in vitro = in vitro ADME, mouse; settings: male
[2] = tested on: 100 A. baumannii strains (50 MDR, 50 non-MDR); assay: MIC broth microdilution at IHMA Europe, panel of 100 strains; assay type: cell-based; settings: for MIC / MIC50 / MIC90: Acinetobacter baumannii
A. baumannii ATCC 17978 = assay: IHMA QC MIC; assay type: cell-based; settings: Acinetobacter baumannii, ATCC17978, read-out: MIC (QC, repeated tests)
Procedure: (§2) The panel of Hungarian clinical isolates and controls measured following the same method as detailed above, and albeit measurements were carried out in 384-well microtiter plates (Corning Inc.).

E. coli ATCC 35218 = assay: IHMA QC MIC; assay type: cell-based; settings: Escherichia coli, ATCC35218, read-out: MIC (QC, repeated tests)
Procedure: as §2

E. coli ATCC 25922 = assay: IHMA QC MIC; assay type: cell-based

Cc1[nH]c(C(=O)Nc2nc3c(N4CCOCC4)cc(C(=O)O)cc3s2)c(Cl)c1Cl [7a, 2-(3,4-Dichloro-5-methyl-1H-pyrrole-2-carboxamido)-4-morpholinobenzo[d]thiazole-6-carboxylic Acid]
MIC [1]: ≤ 0.03 µg/mL | MIC (S. pneumoniae ATCC 49619; QC strain S. pneumoniae ATCC 49619, test date 2021-11-26): 0.25 µg/mL (≈ 0.549 µM) | MIC (S. pneumoniae ATCC 49619; Streptococcus pneumoniae, ATCC49619): 0.25 µg/mL (≈ 0.549 µM) | MIC (H. influenzae ATCC 49247; ATCC49247, QC strain H. influenzae ATCC 49247, test date 2021-11-11): 0.25 µg/mL (≈ 0.549 µM) | MIC (H. influenzae ATCC 49247; ATCC49247, QC strain H. influenzae ATCC 49247, test date 2021-11-26): 0.06 µg/mL (≈ 0.132 µM) | MIC (H. influenzae ATCC 49766; Haemophilus influenzae, ATCC49766): 0.25 µg/mL (≈ 0.549 µM) | MIC (H. influenzae ATCC 49766; QC strain H. influenzae ATCC 49766, test date 2021-11-26): 0.25 µg/mL (≈ 0.549 µM) | recovery at 4 h, 5 μM (in vitro; CD-1, mouse, plasma protein binding assay): 81.5% | fraction unbound at 4 h, 5 μM (in vitro; CD-1, mouse plasma, 5 µM, 4 h, read-out: fu, fraction unbound): 0.018 | MIC ([2]; A. baumannii IHMA 1769910, Israel 2018, Non-MDR): 16 µg/mL (≈ 35.1 µM) | MIC ([2]; A. baumannii IHMA 1795669, Tunisia 2018, Non-MDR): 1 µg/mL (≈ 2.2 µM) | MIC ([2]; A. baumannii IHMA 1814276, Lebanon 2018, MDR): 8 µg/mL (≈ 17.6 µM) | MIC ([2]; A. baumannii IHMA 1815198, Kuwait 2018, MDR): 8 µg/mL (≈ 17.6 µM) | MIC ([2]; A. baumannii IHMA 1821468, South Africa 2018, Non-MDR): 8 µg/mL (≈ 17.6 µM) | MIC ([2]; A. baumannii IHMA 1829500, Georgia 2018, Non-MDR): 8 µg/mL (≈ 17.6 µM) | MIC ([2]; A. baumannii IHMA 1830924, United Kingdom 2018, Non-MDR): 32 µg/mL (≈ 70.3 µM) | MIC ([2]; A. baumannii IHMA 1849819, Kuwait 2018, MDR): 16 µg/mL (≈ 35.1 µM) | MIC ([2]; A. baumannii IHMA 1849829, Kuwait 2018, Non-MDR): 8 µg/mL (≈ 17.6 µM) | MIC ([2]; A. baumannii IHMA 1857118, Slovenia 2018, Non-MDR): 16 µg/mL (≈ 35.1 µM) | MIC ([2]; A. baumannii IHMA 1863631, France 2018, Non-MDR): 8 µg/mL (≈ 17.6 µM) | MIC ([2]; A. baumannii IHMA 1870054, United States 2018, Non-MDR): 8 µg/mL (≈ 17.6 µM) | MIC ([2]; A. baumannii IHMA 1884428, Italy 2018, Non-MDR): 8 µg/mL (≈ 17.6 µM) | MIC ([2]; A. baumannii IHMA 1900538, Turkey 2018, Non-MDR): 8 µg/mL (≈ 17.6 µM) | MIC ([2]; A. baumannii IHMA 1957343, Portugal 2019, Non-MDR): 8 µg/mL (≈ 17.6 µM) | MIC ([2]; A. baumannii IHMA 1963732, Turkey 2019, MDR): 8 µg/mL (≈ 17.6 µM) | MIC ([2]; A. baumannii IHMA 1977077, Kuwait 2019, Non-MDR): 8 µg/mL (≈ 17.6 µM) | MIC ([2]; A. baumannii IHMA 1983151, Greece 2019, MDR): 8 µg/mL (≈ 17.6 µM) | MIC ([2]; A. baumannii IHMA 1984665, Lithuania 2019, MDR): 8 µg/mL (≈ 17.6 µM) | MIC ([2]; A. baumannii IHMA 1986678, Turkey 2019, Non-MDR): 8 µg/mL (≈ 17.6 µM) | MIC ([2]; A. baumannii IHMA 1986738, Turkey 2019, MDR): 8 µg/mL (≈ 17.6 µM) | MIC ([2]; A. baumannii IHMA 1995161, Czech Republic 2019, Non-MDR): 8 µg/mL (≈ 17.6 µM) | MIC ([2]; A. baumannii IHMA 1997936, Morocco 2019, Non-MDR): 8 µg/mL (≈ 17.6 µM) | MIC ([2]; A. baumannii IHMA 2003279, Turkey 2019, MDR): 8 µg/mL (≈ 17.6 µM) | MIC ([2]; A. baumannii IHMA 2014931, South Africa 2019, Non-MDR): 16 µg/mL (≈ 35.1 µM) | MIC ([2]; A. baumannii IHMA 2019315, Romania 2019, Non-MDR): 8 µg/mL (≈ 17.6 µM) | MIC ([2]; A. baumannii IHMA 2020360, Croatia 2019, MDR): 8 µg/mL (≈ 17.6 µM) | MIC ([2]; A. baumannii IHMA 2031524, Greece 2019, MDR): 8 µg/mL (≈ 17.6 µM) | MIC ([2]; A. baumannii IHMA 2034657, Tunisia 2019, Non-MDR): 16 µg/mL (≈ 35.1 µM) | MIC ([2]; A. baumannii IHMA 2035089, Serbia 2019, MDR): 8 µg/mL (≈ 17.6 µM) | MIC ([2]; A. baumannii IHMA 2035134, Serbia 2019, Non-MDR): 8 µg/mL (≈ 17.6 µM) | MIC ([2]; A. baumannii IHMA 2038976, Hungary 2019, MDR): 8 µg/mL (≈ 17.6 µM) | MIC ([2]; A. baumannii IHMA 2058329, Slovenia 2019, Non-MDR): 8 µg/mL (≈ 17.6 µM) | MIC ([2]; A. baumannii IHMA 2099294, United Kingdom 2019, Non-MDR): 8 µg/mL (≈ 17.6 µM) | MIC ([2]; A. baumannii IHMA 2129256, Qatar 2019, Non-MDR): 8 µg/mL (≈ 17.6 µM) | MIC ([2]; A. baumannii IHMA 2154584, Israel 2020, MDR): 8 µg/mL (≈ 17.6 µM) | MIC ([2]; A. baumannii IHMA 2156634, Turkey 2020, MDR): 8 µg/mL (≈ 17.6 µM) | MIC ([2]; A. baumannii IHMA 2156709, Turkey 2020, MDR): 8 µg/mL (≈ 17.6 µM) | MIC ([2]; A. baumannii IHMA 2157614, Australia 2020, Non-MDR): 16 µg/mL (≈ 35.1 µM) | MIC ([2]; A. baumannii IHMA 2177232, Lithuania 2020, MDR): 8 µg/mL (≈ 17.6 µM) | MIC ([2]; A. baumannii IHMA 2177489, Lithuania 2020, MDR): 8 µg/mL (≈ 17.6 µM) | MIC ([2]; A. baumannii IHMA 2178574, Ukraine 2020, Non-MDR): 16 µg/mL (≈ 35.1 µM) | MIC ([2]; A. baumannii IHMA 2180134, Malaysia 2020, Non-MDR): 8 µg/mL (≈ 17.6 µM) | MIC ([2]; A. baumannii IHMA 2181370, Morocco 2020, MDR): 8 µg/mL (≈ 17.6 µM) | MIC ([2]; A. baumannii IHMA 2183729, Argentina 2020, MDR): 16 µg/mL (≈ 35.1 µM) | MIC ([2]; A. baumannii IHMA 2183849, Argentina 2020, Non-MDR): 8 µg/mL (≈ 17.6 µM) | MIC ([2]; A. baumannii IHMA 2193375, Venezuela 2020, MDR): 8 µg/mL (≈ 17.6 µM) | MIC ([2]; A. baumannii IHMA 2193607, Venezuela 2020, MDR): 8 µg/mL (≈ 17.6 µM) | MIC ([2]; A. baumannii IHMA 2195460, Italy 2020, MDR): 8 µg/mL (≈ 17.6 µM) | MIC ([2]; A. baumannii IHMA 2196914, South Africa 2020, MDR): 8 µg/mL (≈ 17.6 µM) | MIC ([2]; A. baumannii IHMA 2196959, South Africa 2020, MDR): 8 µg/mL (≈ 17.6 µM) | MIC ([2]; A. baumannii IHMA 2203763, Spain 2020, MDR): 8 µg/mL (≈ 17.6 µM) | MIC ([2]; A. baumannii IHMA 2212575, Hungary 2020, Non-MDR): 16 µg/mL (≈ 35.1 µM) | MIC ([2]; A. baumannii IHMA 2215307, Hong Kong 2020, Non-MDR): 8 µg/mL (≈ 17.6 µM) | MIC ([2]; A. baumannii IHMA 2216586, Taiwan 2020, MDR): 8 µg/mL (≈ 17.6 µM) | MIC ([2]; A. baumannii IHMA 2224017, Panama 2020, MDR): 16 µg/mL (≈ 35.1 µM) | MIC ([2]; A. baumannii IHMA 2224303, Panama 2020, Non-MDR): 32 µg/mL (≈ 70.3 µM) | MIC ([2]; A. baumannii IHMA 2233099, Guatemala 2020, MDR): 16 µg/mL (≈ 35.1 µM) | MIC ([2]; A. baumannii IHMA 2233430, Kazakhstan 2020, MDR): 8 µg/mL (≈ 17.6 µM) | MIC ([2]; A. baumannii IHMA 2233548, Kazakhstan 2020, Non-MDR): 8 µg/mL (≈ 17.6 µM) | MIC ([2]; A. baumannii IHMA 2238964, Thailand 2020, MDR): 8 µg/mL (≈ 17.6 µM) | MIC ([2]; A. baumannii IHMA 2239052, Thailand 2020, Non-MDR): 8 µg/mL (≈ 17.6 µM) | MIC ([2]; A. baumannii IHMA 2261047, Belgium 2020, MDR): 16 µg/mL (≈ 35.1 µM) | MIC ([2]; A. baumannii IHMA 2261633, Canada 2020, Non-MDR): 16 µg/mL (≈ 35.1 µM) | MIC ([2]; A. baumannii IHMA 2274234, South Africa 2020, MDR): 8 µg/mL (≈ 17.6 µM) | MIC ([2]; A. baumannii IHMA 2274364, South Africa 2020, MDR): 8 µg/mL (≈ 17.6 µM) | MIC ([2]; A. baumannii IHMA 2275237, Chile 2020, Non-MDR): 8 µg/mL (≈ 17.6 µM) | MIC ([2]; A. baumannii IHMA 2316205, United States 2020, MDR): 8 µg/mL (≈ 17.6 µM) | MIC50 ([2]; MDR n = 50): 8 µg/mL (≈ 17.6 µM) | MIC90 ([2]; MDR n = 50): 8 µg/mL (≈ 17.6 µM) | MIC50 ([2]; all isolates n = 100): 8 µg/mL (≈ 17.6 µM) | MIC90 ([2]; all isolates n = 100): 16 µg/mL (≈ 35.1 µM) | MIC50 ([2]; non-MDR n = 50): 8 µg/mL (≈ 17.6 µM) | MIC90 ([2]; non-MDR n = 50): 16 µg/mL (≈ 35.1 µM) | MIC ([2]; read-out: MAX (maximum MIC), non-MDR n = 50): 32 µg/mL (≈ 70.3 µM) | MIC ([2]; read-out: MAX (maximum MIC; all strains inhibited), MDR n = 50): 16 µg/mL (≈ 35.1 µM) | MIC ([2]; read-out: MAX (maximum MIC; all strains inhibited), all isolates n = 100): 32 µg/mL (≈ 70.3 µM) | MIC ([2]; read-out: MIN (minimum MIC), all isolates n = 100): 1 µg/mL (≈ 2.2 µM) | MIC ([2]; read-out: MIN (minimum MIC), non-MDR n = 50): 1 µg/mL (≈ 2.2 µM) | MAX (maximum MIC; all strains inhibited) ([2]; MDR n = 50): 16 µg/mL | MIC (A. baumannii ATCC 17978): 8 µg/mL (≈ 17.6 µM) | MIC (E. coli ATCC 35218): 4 µg/mL (≈ 8.78 µM) | MIC (E. coli ATCC 25922; Escherichia coli, ATCC25922): 8 µg/mL (≈ 17.6 µM) | MIC (E. coli ATCC 25922; Escherichia coli, ATCC25922, read-out: MIC (QC, repeated tests)): 8 µg/mL (≈ 17.6 µM) | MIC (E. coli ATCC 25922; QC strain E. coli ATCC 25922, test date 2021-11-26): 8 µg/mL (≈ 17.6 µM)

— article PMC10041525, “New Dual Inhibitors of Bacterial Topoisomerases with Broad-Spectrum Antibacterial Activity and In Vivo Efficacy against Vancomycin-Intermediate Staphylococcus aureus” (Journal of Medicinal Chemistry, 2023)
